Data: ChEMBL document CHEMBL5584296, “Discovery of Novel Pyrimidine-Based Derivatives as Nav1.2 Inhibitors with Efficacy in Mouse Models of Epilepsy” (J Med Chem, 2024)
Values belong to the molecule of their own block, whether it stands above or below them.

Experiments:
[1] = target: T1, Sodium channel protein type 2 subunit alpha (Homo sapiens, UniProt Q99250); test: Inhibition of human Nav1.2 expressed in HEK293 cells assessed as test to control ratio at 10 uM measured after 5 mins by whole cell voltage clamp electrophysiological analysis; assay type: cell-based
Target sequence in this assay (Q99250 whole entry, looked up): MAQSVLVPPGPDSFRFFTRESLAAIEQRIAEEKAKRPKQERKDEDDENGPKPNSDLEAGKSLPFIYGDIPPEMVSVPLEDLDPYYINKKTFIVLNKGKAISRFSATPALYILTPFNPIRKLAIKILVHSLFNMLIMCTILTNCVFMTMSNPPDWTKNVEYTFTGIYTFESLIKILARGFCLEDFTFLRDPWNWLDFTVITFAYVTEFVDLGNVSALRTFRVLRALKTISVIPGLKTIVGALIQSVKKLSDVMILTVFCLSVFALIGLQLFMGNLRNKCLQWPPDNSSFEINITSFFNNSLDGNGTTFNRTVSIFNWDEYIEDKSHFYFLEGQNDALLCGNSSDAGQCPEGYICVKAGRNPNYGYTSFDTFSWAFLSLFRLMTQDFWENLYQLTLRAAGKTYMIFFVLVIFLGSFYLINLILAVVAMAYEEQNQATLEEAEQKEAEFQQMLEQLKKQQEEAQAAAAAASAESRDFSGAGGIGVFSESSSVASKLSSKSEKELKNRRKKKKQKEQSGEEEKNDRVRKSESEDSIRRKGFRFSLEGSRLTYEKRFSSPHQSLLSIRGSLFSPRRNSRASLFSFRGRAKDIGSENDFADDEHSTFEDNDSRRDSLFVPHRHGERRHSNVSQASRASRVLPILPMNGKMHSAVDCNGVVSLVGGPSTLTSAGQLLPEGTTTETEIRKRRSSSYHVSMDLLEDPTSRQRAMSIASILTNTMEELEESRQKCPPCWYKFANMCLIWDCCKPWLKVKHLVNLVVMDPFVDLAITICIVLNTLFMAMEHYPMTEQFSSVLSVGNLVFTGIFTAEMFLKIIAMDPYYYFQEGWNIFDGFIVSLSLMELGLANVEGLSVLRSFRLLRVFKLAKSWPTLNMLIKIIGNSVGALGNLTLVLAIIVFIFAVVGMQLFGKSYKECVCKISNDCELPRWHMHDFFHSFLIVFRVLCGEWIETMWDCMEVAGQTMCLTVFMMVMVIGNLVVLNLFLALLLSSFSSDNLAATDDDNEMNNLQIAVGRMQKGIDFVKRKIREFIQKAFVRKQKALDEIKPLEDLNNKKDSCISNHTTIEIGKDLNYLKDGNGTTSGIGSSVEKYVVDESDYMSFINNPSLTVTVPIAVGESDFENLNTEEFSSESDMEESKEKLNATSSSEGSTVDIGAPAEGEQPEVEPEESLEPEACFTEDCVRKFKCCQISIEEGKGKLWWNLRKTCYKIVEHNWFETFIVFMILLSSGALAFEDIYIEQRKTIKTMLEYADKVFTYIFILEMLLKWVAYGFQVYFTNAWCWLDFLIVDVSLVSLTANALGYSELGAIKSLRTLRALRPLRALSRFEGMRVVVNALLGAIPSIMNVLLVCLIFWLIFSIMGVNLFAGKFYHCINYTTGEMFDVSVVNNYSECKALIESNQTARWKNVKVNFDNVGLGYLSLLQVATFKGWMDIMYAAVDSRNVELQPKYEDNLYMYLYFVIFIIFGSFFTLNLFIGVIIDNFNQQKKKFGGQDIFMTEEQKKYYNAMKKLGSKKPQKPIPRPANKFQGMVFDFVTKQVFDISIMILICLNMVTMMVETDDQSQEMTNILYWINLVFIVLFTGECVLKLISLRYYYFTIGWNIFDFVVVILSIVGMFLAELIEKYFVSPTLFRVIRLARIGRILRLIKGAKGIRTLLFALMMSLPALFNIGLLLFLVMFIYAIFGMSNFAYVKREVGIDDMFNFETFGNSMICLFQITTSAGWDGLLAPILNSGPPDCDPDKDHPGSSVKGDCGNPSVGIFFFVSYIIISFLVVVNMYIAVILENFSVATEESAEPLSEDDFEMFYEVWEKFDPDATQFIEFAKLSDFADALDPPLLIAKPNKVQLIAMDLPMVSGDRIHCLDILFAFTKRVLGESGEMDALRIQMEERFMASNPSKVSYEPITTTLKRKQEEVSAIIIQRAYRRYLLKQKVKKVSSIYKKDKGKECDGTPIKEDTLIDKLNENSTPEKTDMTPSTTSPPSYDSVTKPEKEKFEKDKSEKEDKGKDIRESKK

[2] = target: T1, Sodium channel protein type 2 subunit alpha; test: Inhibition of human Nav1.2 expressed in HEK293 cells assessed as test to control ratio at 1 uM measured after 5 mins by whole cell voltage clamp electrophysiological analysis; assay type: cell-based
Target sequence in this assay (Q99250 whole entry, looked up): as above

[3] = target: T1, Sodium channel protein type 2 subunit alpha; test: Inhibition of human Nav1.2 expressed in HEK293 cells assessed as test to control ratio at 0.1 uM measured after 5 mins by whole cell voltage clamp electrophysiological analysis; assay type: cell-based
Target sequence in this assay (Q99250 whole entry, looked up): as above

[4] = target: T1, Sodium channel protein type 2 subunit alpha; test: Inhibition of human Nav1.2 expressed in HEK293 cells at -40 mv holding potential measured after 5 mins by whole cell voltage clamp electrophysiological analysis; assay type: cell-based
Target sequence in this assay (Q99250 whole entry): as the sequence (Q99250 whole entry, looked up) above

[5] = target: T1, Sodium channel protein type 2 subunit alpha; test: Inhibition of human Nav1.2 expressed in HEK293 cells at -120 mv holding potential measured after 5 mins by whole cell voltage clamp electrophysiological analysis; assay type: cell-based
Target sequence in this assay (Q99250 whole entry): as the sequence (Q99250 whole entry, looked up) above

[6] = target: Sodium channel protein type 1 subunit alpha (Homo sapiens) (UniProt P35498); test: Inhibition of human Nav1.1 expressed in HEK293 cells assessed as test to control ratio at 0.1 uM by whole cell voltage clamp electrophysiological analysis; assay type: cell-based
[7] = target: Sodium channel protein type 1 subunit alpha (Homo sapiens) (UniProt P35498); test: Inhibition of human Nav1.1 expressed in HEK293 cells assessed as test to control ratio at 1 uM by whole cell voltage clamp electrophysiological analysis; assay type: cell-based
[8] = target: T2, Sodium channel protein type 5 subunit alpha (Homo sapiens, UniProt Q14524); test: Inhibition of human Nav1.5 expressed in CHL cells assessed as test to control ratio at 0.1 uM by whole cell voltage clamp electrophysiological analysis; assay type: cell-based
[9] = target: T2, Sodium channel protein type 5 subunit alpha; test: Inhibition of human Nav1.5 expressed in CHL cells assessed as test to control ratio at 1 uM by whole cell voltage clamp electrophysiological analysis; assay type: cell-based
[10] = target: Sodium channel protein type 8 subunit alpha (Homo sapiens) (UniProt Q9UQD0); test: Inhibition of human Nav1.6 expressed in CHO cells assessed as test to control ratio at 0.1 uM by whole cell voltage clamp electrophysiological analysis; assay type: cell-based
[11] = target: Sodium channel protein type 8 subunit alpha (Homo sapiens) (UniProt Q9UQD0); test: Inhibition of human Nav1.6 expressed in CHO cells assessed as test to control ratio at 1 uM by whole cell voltage clamp electrophysiological analysis; assay type: cell-based
Mus musculus [12] = test: Antiepileptic activity in MES-induced seizure male ICR mouse model assessed as protection against tonic hind limb extension at 5 mg/kg, ip measured after 30 mins relative to control; assay type: functional; conditions: 0.5 h
Mus musculus [13] = test: Antiepileptic activity in MES-induced seizure male ICR mouse model assessed as protection against tonic hind limb extension at 15 mg/kg, ip measured after 30 mins relative to control; assay type: functional; conditions: 0.5 h
Mus musculus [14] = test: Antiepileptic activity in MES-induced seizure male ICR mouse model assessed as protection against tonic hind limb extension at 25 mg/kg, ip measured after 30 mins relative to control; assay type: functional; conditions: 0.5 h
Mus musculus [15] = test: Antiepileptic activity in MES-induced seizure male ICR mouse model assessed as protection against tonic hind limb extension administered intraperitoneally for 30 mins; assay type: functional; conditions: 0.5 h, route ip
Mus musculus [16] = test: Antiepileptic activity in 6 Hz(32 mA)-induced seizure male C57BL mouse model assessed as protection against seizure at 10 mg/kg, ip administered for 30 mins by epilepsy test; assay type: functional; conditions: 0.5 h
Mus musculus [17] = test: Antiepileptic activity in 6 Hz(32 mA)-induced seizure male C57BL mouse model assessed as protection against seizure at 30 mg/kg, ip administered for 30 mins by epilepsy test; assay type: functional; conditions: 0.5 h
Mus musculus [18] = test: Antiepileptic activity in 6 Hz(32 mA)-induced seizure male C57BL mouse model assessed as protection against seizure at 5 mg/kg, ip administered for 30 mins by epilepsy test; assay type: functional; conditions: 0.5 h
Mus musculus [19] = test: Antiepileptic activity in 6 Hz(32 mA)-induced seizure male C57BL mouse model administered intraperitoneally for 30 mins by epilepsy test; assay type: functional; conditions: 0.5 h, route ip
[20] = Neurotoxicity in male ICR mouse assessed as motor impairment at 30 mg/kg, ip administered for 30 mins by rotarod test relative to control; assay type: toxicity, organism-based; conditions: in vivo, 0.5 h
[21] = Neurotoxicity in male ICR mouse assessed as motor impairment at 35 mg/kg, ip administered for 30 mins by rotarod test relative to control; assay type: toxicity, organism-based; conditions: in vivo, 0.5 h
[22] = Neurotoxicity in male ICR mouse assessed as motor impairment at 37 mg/kg, ip administered for 30 mins by rotarod test relative to control; assay type: toxicity, organism-based; conditions: in vivo, 0.5 h
[23] = Neurotoxicity in male ICR mouse assessed as motor impairment at 40 mg/kg, ip administered for 30 mins by rotarod test relative to control; assay type: toxicity, organism-based; conditions: in vivo, 0.5 h
[24] = Neurotoxicity in male ICR mouse administered intraperitoneally for 30 mins; assay type: toxicity; conditions: in vivo, route ip
[25] = target: T1, Sodium channel protein type 2 subunit alpha; test: Inhibition of human Nav1.2 expressed in HEK293 cells assessed as effect on steady state activation by measuring half activation potential at 0.2 uM (reference value: -36 mV); assay type: cell-based
Target sequence in this assay (Q99250 whole entry, looked up): as above

[26] = target: T1, Sodium channel protein type 2 subunit alpha; test: Inhibition of human Nav1.2 expressed in HEK293 cells assessed as effect on steady state inactivation by measuring half activation potential at 0.2 uM (reference value: -54 mV); assay type: cell-based
Target sequence in this assay (Q99250 whole entry, looked up): as above

[27] = Neurotoxicity in male ICR mouse assessed as motor impairment at 5 mg/kg, ip administered for 30 mins by rotarod test relative to control; assay type: toxicity, organism-based; conditions: in vivo, 0.5 h

Chain of Sodium channel protein type 8 subunit alpha (Homo sapiens) (Q9UQD0 whole entry, looked up): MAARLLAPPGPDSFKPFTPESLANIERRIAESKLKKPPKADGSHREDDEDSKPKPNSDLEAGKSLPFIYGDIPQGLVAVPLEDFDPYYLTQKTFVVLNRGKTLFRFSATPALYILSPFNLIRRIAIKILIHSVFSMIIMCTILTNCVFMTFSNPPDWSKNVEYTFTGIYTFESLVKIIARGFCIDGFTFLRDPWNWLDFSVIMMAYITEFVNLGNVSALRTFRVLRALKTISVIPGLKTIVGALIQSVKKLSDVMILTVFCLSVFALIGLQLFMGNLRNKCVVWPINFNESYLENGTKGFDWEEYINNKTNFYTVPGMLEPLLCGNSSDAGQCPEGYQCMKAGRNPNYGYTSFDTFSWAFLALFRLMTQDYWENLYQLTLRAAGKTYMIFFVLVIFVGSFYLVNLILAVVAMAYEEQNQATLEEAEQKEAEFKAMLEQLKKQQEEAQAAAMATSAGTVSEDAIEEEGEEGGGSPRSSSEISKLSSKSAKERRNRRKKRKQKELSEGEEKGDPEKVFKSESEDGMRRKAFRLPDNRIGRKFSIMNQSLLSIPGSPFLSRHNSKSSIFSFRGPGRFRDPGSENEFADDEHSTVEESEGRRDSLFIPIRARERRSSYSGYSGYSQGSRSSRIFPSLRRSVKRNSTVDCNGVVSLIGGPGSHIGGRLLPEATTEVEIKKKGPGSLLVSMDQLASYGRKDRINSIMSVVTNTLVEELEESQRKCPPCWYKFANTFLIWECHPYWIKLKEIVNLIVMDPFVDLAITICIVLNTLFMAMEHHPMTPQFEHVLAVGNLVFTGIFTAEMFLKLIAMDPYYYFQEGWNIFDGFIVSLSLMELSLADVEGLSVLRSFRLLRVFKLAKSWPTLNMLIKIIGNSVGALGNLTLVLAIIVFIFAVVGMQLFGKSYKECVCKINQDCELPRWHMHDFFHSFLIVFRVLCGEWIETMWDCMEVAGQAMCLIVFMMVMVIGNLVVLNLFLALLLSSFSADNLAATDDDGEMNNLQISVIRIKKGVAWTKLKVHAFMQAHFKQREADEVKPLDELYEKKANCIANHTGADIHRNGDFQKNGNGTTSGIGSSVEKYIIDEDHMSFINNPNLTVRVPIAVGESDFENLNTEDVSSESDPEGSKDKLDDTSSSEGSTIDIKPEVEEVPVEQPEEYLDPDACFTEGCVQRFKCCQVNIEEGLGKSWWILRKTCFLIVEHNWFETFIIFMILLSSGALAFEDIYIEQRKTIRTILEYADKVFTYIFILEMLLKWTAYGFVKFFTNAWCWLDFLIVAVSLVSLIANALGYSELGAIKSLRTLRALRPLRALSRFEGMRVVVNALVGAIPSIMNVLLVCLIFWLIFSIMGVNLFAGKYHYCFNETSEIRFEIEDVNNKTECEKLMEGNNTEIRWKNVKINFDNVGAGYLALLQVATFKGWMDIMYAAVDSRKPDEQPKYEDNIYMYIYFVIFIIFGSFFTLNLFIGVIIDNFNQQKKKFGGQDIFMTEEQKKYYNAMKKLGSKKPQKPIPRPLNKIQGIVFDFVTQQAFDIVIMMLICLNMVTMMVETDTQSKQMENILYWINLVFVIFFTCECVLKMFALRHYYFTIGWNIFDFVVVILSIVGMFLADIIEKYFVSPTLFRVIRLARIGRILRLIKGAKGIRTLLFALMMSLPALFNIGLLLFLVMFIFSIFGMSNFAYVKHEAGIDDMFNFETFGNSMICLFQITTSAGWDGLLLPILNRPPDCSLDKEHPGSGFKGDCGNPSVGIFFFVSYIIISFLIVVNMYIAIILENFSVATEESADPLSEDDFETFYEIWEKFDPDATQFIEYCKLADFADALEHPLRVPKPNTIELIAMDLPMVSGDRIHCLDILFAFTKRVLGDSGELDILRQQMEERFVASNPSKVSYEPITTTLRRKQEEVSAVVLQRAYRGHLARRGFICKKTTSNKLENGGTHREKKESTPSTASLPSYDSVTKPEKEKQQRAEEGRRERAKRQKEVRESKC

T/C [1]: 0
T/C [2]: 0.04
T/C [3]: 0.39
IC50 [4]: 65 nM
IC50 [5]: 158 nM
T/C [6]: 0.18
T/C [7]: 0.02
T/C [10]: 0.42
T/C [11]: 0.09
V1/2 [25]: -30 mV
V1/2 [26]: -56 mV
Structure (SMILES): COc1cccc(-c2cc(N3CCCc4ccc(C)cc4C3)nc(N)n2)c1
T/C [8]: 0.18
T/C [9]: 0.07
Activity (Mus musculus [12]): 25%
Activity (Mus musculus [13]): 44%
Activity (Mus musculus [14]): 88%
ED50 (Mus musculus [15]): 11.1 mg/kg
Activity (Mus musculus [16]): 38%
Activity (Mus musculus [17]): 63%
Activity (Mus musculus [18]): 13%
ED50 (Mus musculus [19]): 18.5 mg/kg
Activity [20]: 38%
Activity [21]: 63%
Activity [22]: 88%
Activity [23]: 100%
TD50 at 0.5 h [24]: 31.9 mg/kg

Structure (SMILES): CN(C)CCCN1c2ccccc2Sc2ccc(Cl)cc21 [CHLORPROMAZINE]
Activity [27]: 88%
